Test system: LG0567-F671-PDC KRAS tumor spheroid viability
Test: Anticancer human tumor LG0567-F671-PDC patient-derived lung adenocarcinoma cell line growth inhibition [KRAS2]
Conditions: spheroids with HUVEC and MSC; for IC50: curve of first compound; for viability, T/C: stronger effect = lower value
Outline: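 Combination screen of spheroid viability in tumor-cell co-cultures with endothelial (HUVEC) and mesenchymal stem cell stroma. Each agent was tested in half-log dilutions, topping at clinical Cmax or at 10 microM without a known Cmax.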

[1] = second compound 0.1 µM, first compound 0.0316 µM
[2] = second compound 0.1 µM, first compound 0.1 µM
[3] = second compound 0.1 µM, first compound 0.316 µM
[4] = second compound 0.1 µM, first compound 1 µM
[5] = second compound 0.316 µM, first compound 0.0316 µM
[6] = second compound 0.316 µM, first compound 0.1 µM
[7] = second compound 0.316 µM, first compound 0.316 µM
[8] = second compound 0.316 µM, first compound 1 µM
[9] = second compound 1 µM, first compound 0.0316 µM
[10] = second compound 1 µM, first compound 0.1 µM
[11] = second compound 1 µM, first compound 0.316 µM
[12] = second compound 1 µM, first compound 1 µM
[13] = second compound 3.16 µM, first compound 0.0316 µM
[14] = second compound 3.16 µM, first compound 0.1 µM
[15] = second compound 3.16 µM, first compound 0.316 µM
[16] = second compound 3.16 µM, first compound 1 µM
[17] = second compound 10 µM, first compound 0.0316 µM
[18] = second compound 10 µM, first compound 0.1 µM
[19] = second compound 10 µM, first compound 0.316 µM
[20] = second compound 10 µM, first compound 1 µM
[21] = second compound 0.1 µM, first compound 3.16 µM
[22] = second compound 0.1 µM, first compound 10 µM
[23] = second compound 0.316 µM, first compound 3.16 µM
[24] = second compound 0.316 µM, first compound 10 µM
[25] = second compound 1 µM, first compound 3.16 µM
[26] = second compound 1 µM, first compound 10 µM
[27] = second compound 3.16 µM, first compound 3.16 µM
[28] = second compound 3.16 µM, first compound 10 µM
[29] = second compound 10 µM, first compound 3.16 µM
[30] = second compound 10 µM, first compound 10 µM
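Note: drug exposure lasted seven days after spheroids formed for three days.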
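Throughout, for viability, T/C: 100% = DMSO vehicle control viability.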

Row | Compound | IC50 (second compound 0.1 µM) | IC50 (second compound 0.316 µM) | IC50 (second compound 1 µM) | IC50 (second compound 3.16 µM) | viability, T/C [1] | viability, T/C [2] | viability, T/C [3] | viability, T/C [4] | viability, T/C [5] | viability, T/C [6] | viability, T/C [7] | viability, T/C [8] | viability, T/C [9] | viability, T/C [10] | viability, T/C [11] | viability, T/C [12] | viability, T/C [13] | viability, T/C [14] | viability, T/C [15] | viability, T/C [16] | also measured
1 | CCN1CCN(Cc2ccc(Nc3ncc(F)c(-c4cc(F)c5nc(C)n(C(C)C)c5c4)n3)nc2)CC1 + COc1cc2nc(C)nc(NC(C)c3cc(N)cc(C(F)(F)F)c3)c2cc1OC1CCOC1 | 913 nM | 47.3 nM | 7.74 nM | < 3.16 nM | 54.3% | 56.7% | 54.8% | 47.3% | 51.5% | 47.5% | 44.2% | 45.3% | 45.7% | 38.7% | 32.2% | 42.4% | 34.7% | 33.6% | 29.4% | 30.8% | IC50 (second compound 10 µM): 5.32 nM; viability, T/C (second compound 0.1 µM, first compound 0.00316 µM): 70.5%; viability, T/C (second compound 0.1 µM, first compound 0.01 µM): 64.7%; viability, T/C (second compound 0.316 µM, first compound 0.00316 µM): 69%; viability, T/C (second compound 0.316 µM, first compound 0.01 µM): 64.2%; viability, T/C (second compound 1 µM, first compound 0.00316 µM): 57.3%; viability, T/C (second compound 1 µM, first compound 0.01 µM): 47.3%; viability, T/C (second compound 3.16 µM, first compound 0.00316 µM): 44.4%; viability, T/C (second compound 3.16 µM, first compound 0.01 µM): 39.5%; viability, T/C (second compound 10 µM, first compound 0.00316 µM): 60.8%; viability, T/C (second compound 10 µM, first compound 0.01 µM): 34.8%; viability, T/C [17]: 26.5%; viability, T/C [18]: 9.45%; viability, T/C [19]: 0.94%; viability, T/C [20]: 0.43%
2 | Cn1nccc1Nc1nccc(-c2cc3c(s2)C(C)(C)N(CCN2CCOCC2)C3=O)n1 + C=CC(=O)N1CCN(c2nc(OCC3CCCN3C)nc3c2CCN(c2cccc4cccc(C)c24)C3)CC1CC#N | < 31.6 nM | < 31.6 nM | < 31.6 nM | < 31.6 nM | 26.8% | 31.8% | 28% | 23.3% | 33.2% | 25.8% | 21.2% | 35.5% | 29.6% | 26.9% | 33.1% | 26.5% | 29.3% | 29.1% | 28.1% | 23.2% | IC50 (second compound 0.0316 µM): < 31.6 nM; viability, T/C (second compound 0.0316 µM, first compound 0.0316 µM): 34.5%; viability, T/C (second compound 0.0316 µM, first compound 0.1 µM): 28.7%; viability, T/C (second compound 0.0316 µM, first compound 0.316 µM): 39.7%; viability, T/C (second compound 0.0316 µM, first compound 1 µM): 19.2%; viability, T/C (second compound 0.0316 µM, first compound 3.16 µM): 19.9%; viability, T/C (second compound 0.0316 µM, first compound 10 µM): 19.7%; viability, T/C [21]: 17.8%; viability, T/C [22]: 21.1%; viability, T/C [23]: 16.8%; viability, T/C [24]: 19.1%; viability, T/C [25]: 15.3%; viability, T/C [26]: 19.4%; viability, T/C [27]: 21.7%; viability, T/C [28]: 24.4%
3 | CC1OCC2(CCN(c3cnc(Sc4ccnc(N)c4Cl)c(N)n3)CC2)C1N (stereo not given) + COc1cc2nc(C)nc(NC(C)c3cc(N)cc(C(F)(F)F)c3)c2cc1OC1CCOC1 | 62.2 nM | 55.5 nM | 68.1 nM | 57.7 nM | 61.9% | 40.3% | 30.6% | 27.5% | 58% | 41.6% | 30.6% | 25.8% | 61.5% | 43.6% | 32% | 26.3% | 58.1% | 42.3% | 32% | 25.4% | IC50 (second compound 10 µM): 56.2 nM; viability, T/C [21]: 23.1%; viability, T/C [22]: 15.3%; viability, T/C [23]: 21.7%; viability, T/C [24]: 16%; viability, T/C [25]: 19.2%; viability, T/C [26]: 13.5%; viability, T/C [27]: 19.2%; viability, T/C [28]: 13.6%; viability, T/C [17]: 52.7%; viability, T/C [18]: 47.4%; viability, T/C [19]: 28.9%; viability, T/C [20]: 20.2%; viability, T/C [29]: 19.5%; viability, T/C [30]: 16%
4 | COC(=O)c1ccc2c(C(=Nc3ccc(N(C)C(=O)CN4CCN(C)CC4)cc3)c3ccccc3)c(O)[nH]c2c1 + C=CC(=O)N1CCN(c2nc(=O)n(-c3c(C)ccnc3C(C)C)c3nc(-c4c(O)cccc4F)c(F)cc23)C(C)C1 | < 31.6 nM | < 31.6 nM | < 31.6 nM | < 31.6 nM | 23.1% | 22% | 25.9% | 28.3% | 20.8% | 23.3% | 20.1% | 23.2% | 21.7% | 22% | 21.6% | 32% | 18.8% | 18.8% | 19.6% | 22.6% | IC50 (second compound 10 µM): < 31.6 nM; viability, T/C [21]: 30%; viability, T/C [22]: 33%; viability, T/C [23]: 29.7%; viability, T/C [24]: 27.9%; viability, T/C [25]: 26.6%; viability, T/C [26]: 30.1%; viability, T/C [27]: 28%; viability, T/C [28]: 30.1%; viability, T/C [17]: 26.3%; viability, T/C [18]: 24.4%; viability, T/C [19]: 22.2%; viability, T/C [20]: 24.6%; viability, T/C [29]: 27.9%; viability, T/C [30]: 1.41%
